Data on 2 compounds can be found in patent US20250049809A1, “INHIBITORS OF MUTANT IDH1 AND IDH2” (Board of Regents, The University of Texas System, priority 2023, published 2025).

Assay [1] deals with U87 IDH1R132H (Homo sapiens (Human), UniProt O75874, R132H). As to the kind of experiment: U87 IDH1 R132H 2-HG cellular assay. The class given is cell-based. Conditions: extracellular 2HG, 24 h treatment, IDH1 mutant-U-87 isogenic cell line. As to the method: The IDH1 mutant-U-87 isogenic cell line (ATCC HTB-14IG) used to test cellular inhibition is a glioma IDH1R132H mutant isogenic line derived from the parental U-87MG cell line. These cells are maintained in EMEM (ATCC 30-2003) culture media with 10% FBS and 10 U/mL Penicillin-Streptomycin. Twelve thousand cells are plated in polystyrene 384 well cell culture plates (Greiner Bio-One 781091) (12,000 cells/well) approximately 18 hours before compound treatment. Immediately before treatment, the cells are washed twice with PBS, followed by culture media replenishing. Cells are then treated with different concentrations of test compounds (5 μM to 0.3 pM) for 24 h. Extracellular 2HG levels are measured from cell culture media. For analyte extraction, 30 μL of culture media is transferred to 120 uL 100% acetonitrile in a deep 384 well plate and mixed well, followed by 5 min centrifugation at 3700 rpm at room temperature. 100 μL of supernatant is transferred to a flat bottom 384 well plate. Samples are run on the Agilent RapidFire-Mass Spectrometry instrument to detect 2HG levels. The samples from each well were aspirated for 600 ms and loaded onto a HILIC solid-phase extraction cartridge (Agilent) followed by a wash step for 3000 ms with 90% acetonitrile containing 5 mM ammonium acetate. Analytes were then eluted off the cartridge into the Agilent 6460 Triple Quad mass spectrometer with a 4500 ms elution step using 30% acetonitrile containing 5 mM ammonium acetate. The HILIC cartridge was then re-equilibrated by 90% acetonitrile containing 5 mM ammonium acetate for 500 ms. The 2HG was detected by an Agilent 6460 Triple Quad mass spectrometer in negative ion mode. Multiple reaction monitoring was used to quantify 2HG using the precursor ion and product ion at m/z 147.03 and 128.9, respectively. The percent activity of each sample is calculated by using DMSO and control compound treated references, and IC50 values are obtained using the GeneData Screener data analysis program.

Assay [2] concerns the target mIDH2R140Q (Homo sapiens (Human), UniProt P48735, R140Q). The assay is described as follows: mIDH2 R140Q enzymatic activity assay (NADPH fluorescence). Conditions: enzyme assay, 1 hour preincubation; read-out: IDH2R140Q IC50. Format: biochemical. As to the method: The enzymatic activity of mIDH2R140Q was assessed by measuring the fluorescence of the NADPH. The assay was performed in 384 well, white ProxiPlates (PerkinElmer, 6008280) in assay buffer containing 50 mM Hepes (Life Technologies, 15630080), 50 mM KCl (Teknova, P0327), 10 mM MgCl2 (Sigma-Aldrich, M1028), 1 mM DTT (Sigma-Aldrich, 43815), 0.02% BSA (Sigma-Aldrich, A3059) at pH 7.5. The final reaction volume was 10 μL. Stock solutions of the test compounds were prepared in 100% DMSO (Sigma, D2650) and serially diluted 1:3 using 100% DMSO. 50 nL of compound were then transferred to the assay plate using the Beckman Coulter ECHO 650 Acoustic Liquid Handler for a final DMSO concentration of 0.5%. 5 μL of a mIDH2R140Q and NADPH (Santa Cruz, SC202725C) mixture were added to the assay plate for a final concentration of 3 nM and 10 μM, respectively. 5 μL of NADPH alone were added to negative control wells followed by a 1 hour preincubation at room temperature. 5 μL of alphaketoglutarate (Sigma-Aldrich, K1128) were added to the assay plate for a final concentration of 300 μM. Fluorescence of NADPH (excitation: 350 nm, emission 450 nm) was immediately measured kinetically for approximately 150 minutes using the BioTek Synergy Neo plate reader.

For assay [3], the target named is TF1 IDH2R140Q (Homo sapiens (Human), UniProt P48735, R140Q). The assay is described as follows: TF1 IDH2 R140Q 2-HG cellular assay. The class given is cell-based. Conditions: extracellular 2HG, 24 hr treatment, IDH2 mutant-TF1 isogenic cell line. Here is the method:
The IDH2 mutant-TF1 isogenic cell line (ATCC CRL-20031G) used to test cellular inhibition is an erythroblast cell line that was isolated from the marrow of a patient with erythroleukemia with the IDH2R140Q mutation. These cells are maintained in RPMI-1640 (ATCC 30-2001) culture media with 10% FBS, 10 U/mL Penicillin-Streptomycin, and 2 ng/mL GM-CSF. Thirty thousand cells are plated in polystyrene tissue culture treated 384 well cell culture plates (PerkinElmer 6007680) (30,000 cells/well) approximately 2 hours before compound treatment. Cells are then treated with different concentrations of test compounds (5 μM to 0.3 pM) for 24 hr. Extracellular 2HG levels are measured from cell culture media. For analyte extraction, 30 μL of culture media is transferred to 120 μL 100% acetonitrile in a deep 384 well plate and mixed well, followed by 5 min centrifugation at 3700 rpm at room temperature. 100 μL of supernatant is transferred to a flat bottom 384 well plate. Samples are run on the Agilent RapidFire-Mass Spectrometry instrument to detect 2HG levels. The samples from each well were aspirated for 600 ms and loaded onto a HILIC solid-phase extraction cartridge (Agilent) followed by a wash step for 3000 ms with 90% acetonitrile containing 5 mM ammonium acetate. Analytes were then eluted off the cartridge into the Agilent 6460 Triple Quad mass spectrometer with a 4500 ms elution step using 30% acetonitrile containing 5 mM ammonium acetate. The HILIC cartridge was then re-equilibrated by 90% acetonitrile containing 5 mM ammonium acetate for 500 ms. The 2HG was detected by an Agilent 6460 Triple Quad mass spectrometer in negative ion mode. Multiple reaction monitoring was used to quantify 2HG using the precursor ion and product ion at m/z 147.03 and 128.9, respectively. The percent activity of each sample is calculated by using DMSO and control compound treated references, and IC50 values are obtained using the GeneData Screener data analysis program.

Structures are written as SMILES.

Chain of TF1 IDH2R140Q (P48735 40-452 R140Q): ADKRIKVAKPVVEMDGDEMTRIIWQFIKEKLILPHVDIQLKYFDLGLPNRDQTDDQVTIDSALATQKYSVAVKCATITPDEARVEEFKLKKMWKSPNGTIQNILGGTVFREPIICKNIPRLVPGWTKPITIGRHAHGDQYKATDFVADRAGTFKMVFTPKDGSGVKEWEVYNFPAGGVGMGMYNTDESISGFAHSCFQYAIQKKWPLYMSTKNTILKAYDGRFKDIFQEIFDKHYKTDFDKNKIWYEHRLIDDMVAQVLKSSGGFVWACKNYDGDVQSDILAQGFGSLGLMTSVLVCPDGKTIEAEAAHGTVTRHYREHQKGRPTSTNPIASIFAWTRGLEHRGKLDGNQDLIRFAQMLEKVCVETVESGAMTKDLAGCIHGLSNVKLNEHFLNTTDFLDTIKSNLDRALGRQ
Chain of mIDH2R140Q (P48735 40-452 R140Q): as above
Chain of U87 IDH1R132H (O75874 whole entry R132H): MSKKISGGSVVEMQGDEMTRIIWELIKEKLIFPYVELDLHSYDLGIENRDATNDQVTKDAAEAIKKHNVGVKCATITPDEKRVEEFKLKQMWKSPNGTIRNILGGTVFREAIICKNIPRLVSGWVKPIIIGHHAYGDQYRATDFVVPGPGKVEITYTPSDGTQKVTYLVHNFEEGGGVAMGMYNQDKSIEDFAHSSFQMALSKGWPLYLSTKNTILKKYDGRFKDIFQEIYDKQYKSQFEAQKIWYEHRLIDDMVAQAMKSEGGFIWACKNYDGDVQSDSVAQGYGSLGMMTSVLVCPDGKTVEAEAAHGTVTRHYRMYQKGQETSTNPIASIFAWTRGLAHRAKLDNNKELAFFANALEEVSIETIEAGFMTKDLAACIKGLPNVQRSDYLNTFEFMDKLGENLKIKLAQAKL

As usually defined, the IC50 is the concentration at which inhibition is half-maximal. With `C=CC(=O)N1CCN(C2CCCC/C=C/CN3C(=O)OCc4cnc(nc43)N[C@@H](C)c3ccc2cc3)CC1` (stereo partly drawn) [Example 3, (3S,E)-5-(4-acryloylpiperazin-1-yl)-3-methyl-1^1,1^4-dihydro-1^2H-2-aza-1(7,1)-pyrimido[4,5-d][1,3]oxazina-4(1,4)-benzenacyclododecaphan-10-en-1^2-one], the IC50 was determined as 0.14 nM in assay [1], 1440 nM in assay [2] and 277 nM in assay [3].

As for `C=CC(=O)N1CCN(C2CCCCCCCN3C(=O)OCc4cnc(nc43)N[C@@H](C)c3ccc2cc3)CC1` (stereo partly drawn) [Example 4, (3S)-5-(4-acryloylpiperazin-1-yl)-3-methyl-1^1,1^4-dihydro-1^2H-2-aza-1(7,1)-pyrimido[4,5-d][1,3]oxazina-4(1,4)-benzenacyclododecaphan-1^2-one], the values for the IC50 in assay [1], in assay [2] and in assay [3] were 0.2 nM, 1680 nM and 282 nM, respectively.
